Data published in US9962427B2, “Treatment of right ventricular dysfunction due to pressure overload” (OTTAWA HOSPITAL RESEARCH INSTITUTE, priority 2016, dated 2018).

How the values were obtained:
[1] = system: rats; assay: In vivo growth reversal analysis (ECHO, HW:BW, CD31 capillary density) after 2 week delivery and follow-on; set-up: species or system rat; settings: for ventricle wall thickness at 2 weeks: CT-1 6 μg/kg/hr or PE 10 mg/kg/day for 2 weeks
Description: FIGS. 3A, 3B, and 3C. […] Arrows (in upper panels) point to myocardial wall (RVLW). Dotted lines (in lower panels) show inner ventricle chambers.
FIGS. 4A and 4B. Beneficial/physiologic cardiac adaptive compensation and reversion to baseline cardiac dimensions is observed upon 2 weeks of hCT1 administration in vivo followed by hCT1 withdrawal for 4 weeks. Identical follow-on procedure and analysis as conducted in FIG. 3 above. FIG. 4A Whole hearts and Hematoxylin & Eosin (H & E) stained sections and quantification of the heart weight to body weight (HW:BW) ratio 6 weeks post-treatment with hCT1 or PE.
CT-1 was tested in vivo to determine whether its administration would induce a myocardial adaptive remodeling characteristic of physiologic compensation (FIGS. 3A, 3B, and 3C). Osmotic minipumps containing PBS control (Ctrl) or hCT1 (6 μg/kg/hr) or Isoproterenol (ISO, 1 mg/kg/day) were implanted subcutaneously in rats. ISO is a beta-adrenergic receptor agonist and continuous infusion with ISO in rats is known to induce pathological cardiac hypertrophy and cardiomyocyte damage (in both the right and left ventricles) which progresses to heart failure (Morisco et al (2001) J Mol Cell Cardiol 33:561-573 and Grimm et al (1998) Cardiovascular Research 37:91-100). After 2 weeks of treatment, M-mode ECHO analysis was used to assess myocardial structure/function (FIG. 3A). In this model, an increased right ventricle lateral wall (RVLW) thickness indicates the presence of myocardiocytes growth, and an increased ratio of the right to left ventricle internal diameters (RVID/LVID) is an indicator of pathologic hypertrophy. An increased RVLW thickness but constant or reduced RVID:LVID ratio is an indicator of adaptive compensatory RV remodeling. Both hCT1 and ISO induced a significant increase in RVLW thickness (12% and 32% fold increase, respectively) compared to control rats (n=3; * and **, P<0.05). […] An in vivo growth reversal analysis was also conducted. Following a 2 week delivery of CT-1 protein (6 μg/kg/hr) or PE (10 mg/kg/day) as the pathologic control in this case, animals were then assessed for cardiac structure/function at a 6 week follow-on period. […] Collectively, these studies support the contention that CT-1 elicits a reversible physiologic cardiac adaptive compensation.

[2] = system: STAT3; assay: STAT3 luciferase reporter in cardiomyocytes; assay type: cell-based; settings: 30 minutes up to 24 hours; hCT1 0.5 nM, PE 100 μM, PAC-1 25 μM
Description: (§1) FIGS. 6A, 6B, and 6C. Stimulation with hCT1 causes sustained activation of NF-κB and Stat3 with limited activation of Mef2, as well as limited Nfat activation; the latter two indices are distinct expression patterns from pathologic hypertrophic stimulation. FIG. 6A Primary neonatal cardiomyocytes were transfected with luciferase reporter plasmids (NF-κB or Mef2), as indicators of hypertrophic activity. Luciferase activity was measured after treatments for 24 hrs with: hCT1 (0.5 nM), PE (100 μM), or procaspase 3 activating compound 1, PAC-1 (25 μM) (left). Treatments at early timepoints (30 min, 1 hr, and 3 hr) were also conducted for hCT1 (right). FIG. 6B Primary neonatal cardiomyocytes were transfected with a luciferase reporter plasmid for Stat3. Luciferase activity was measured after treatments for 24 hrs with: hCT1 (0.5 nM), PE (100 μM), or procaspase 3 activating compound 1, PAC-1 (25 μM) (left) and at earlier time points (right). FIG. 6C Primary neonatal cardiomyocytes were infected with a luciferase-based Nfat reporter Adenovirus (Nfat-AdV). Luciferase activity was measured after treatments for 24 hrs with: hCT1 (0.5 nM), PE (100 μM), or procaspase 3 activating compound 1, PAC-1 (25 μM) (left) and at earlier time points (right)
Moreover, it is reasonable to assume that CT-1 may moderate the activity of additional transcription factors, which further contribute to the adaptive compensation phenotype. As such, Applicants decided to test the hypothesis that STAT3 (Signal transducer and activator of transcription 3) dependent transcriptional activity is a specific determinant for CT-1 induced physiologic adaptive compensation. STAT3 phosphorylation and transcriptional activation is a response that is common to the Interleukin-6 cytokine family (of which CT-1 is a member), which is mediated through binding and activation of a JAK/gp130 (Janus kinase/[…]) receptor complex.

[3] = system: NFAT; assay: NFAT luciferase reporter adenovirus (Nfat-AdV) in cardiomyocytes; assay type: cell-based
Description: as §1
Applicants tested this supposition by infecting cardiomyocytes with an NFAT luciferase reporter linked to an Adenovirus (AdV) backbone (FIG. 6C). Cardiomyocytes were infected at a […] (MOI) of 20 with Nfat-AdV for 24 hours prior to stimulation with hCT1 (0.5 nM), PE (100 μM), or procaspase 3 activating compound 1, PAC-1 (25 μM). As an initial positive control, co-infection of NFAT-AdV with activated Calcineurin-AdV (a phosphatase and potent activator of NFAT signalling) caused a significant increase in NFAT activity (n=4; *, P<0.05). […] Although the exact mechanism of inhibition is unknown, Applicant has shown CT-1 engaging a PI3K signalling pathway and it would be reasonable to postulate that phosphorylation of NFAT by CT-1/PI3K signalling would limit NFAT activity.

[4] = system: Vascular Endothelial Growth Factor—VEGF; assay: VEGF expression by immunofluorescence in primary cardiomyocytes; assay type: cell-based; settings: 24 hours; hCT1 0.5 nM, PE 100 μM, PAC-1 25 μM
Description: FIGS. 8A and 8B. […] FIG. 8B Microarray analysis of primary cardiomyocytes stimulated with hCT1 (0.5 nM) for 24 hours.
Applicant explored the role of CT-1 as a pro-angiogenic factor in the adaptive hypertrophic response. Physiologic cardiac adaptive compensation is associated with an increase in capillary density, whereas pathologic response is characterized by a decline or no change at all. Importantly, the compensatory vascular growth/angiogenesis that occurs during physiologic adaptive compensation is permissive for the increased workload that accompanies physiologic adaptive compensation. Despite this adaptation, little information exists regarding the mechanisms that match the demand for angiogenesis to the beneficial form of myocardial growth. The rapid in vitro and in vivo adaptive compensation in response to CT-1 supports a hypothesis that the cardiomyocyte itself may act in a paracrine fashion, to signal and promote angiogenesis. To address this conjecture, Applicant examined whether CT-1 treated primary cardiomyocytes produced vascular endothelial growth factor (VEGF), an angiogenic factor known to be produced and secreted by cardiomyocytes. Primary cardiomyocytes were incubated with control serum-free media (Ctrl, SF media) or stimulated with hCT1 (0.5 nM), PE (100 μM), or PAC-1 (25 μM) for 24 hours. Immunofluorescence was used to detect α-actinin, Vascular Endothelial Growth Factor—VEGF, and nuclei. […] Based on these observations Applicant next conducted a comparative gene expression analysis of control (non-stimulated) versus CT-1 treated (0.5 nM, 24 hours) primary cardiomyocytes, using the Affymetrix Rat gene 2.0ST array.

[5] = 2 week delivery, 6 week follow-on

Row | Molecule | RVID/LVID ratio at 6 weeks post-treatment compared to control rats [1, 5] | heart weight to body weight ratio at 6 weeks post-treatment [1, 5] | wall thickness / cardiac dimensions at 6 weeks post-treatment [1, 5] | cardiac capillary density (CD31 immunostained right ventricle sections) ([1]; 6 weeks post-treatment, compared to CT-1 treated and control animals) | ventricle wall thickness at 2 weeks [1] | STAT3 activation [2] | NFAT activity compared to baseline levels ([3]; as early as 3 hours, up to 24 hours, PE 100 μM, PAC-1 25 μM) | VEGF expression (immunofluorescence) [4] | NFAT activity compared to baseline levels, CT-1 alone ([3]; 30 minutes, 1 hour, and 3 hours) | NFAT activity after CT-1 pre-treatment compared to PE or PAC-1 alone ([3]; 3 hours and 24 hours)
1 | CNC[C@H](O)c1cccc(O)c1 [PE, Phenylephrine] | maintained their increased RVID/LVID ratio | increased heart weight to body weight ratio | retaining the substantial increase in wall thickness | significant decrease in cardiac capillary density | increase in (both) ventricle wall thickness | only minimal (if any) activation | significant increase of NFAT activity | less VEGF expression | – | –
2 | hCT1: Recombinant human CT1 protein; 201 amino acid sequence, GenBank Accession Nos AAD12173 and AAA85229 (human) (protein, UniProt Q16619 1-201, looked up) Cardiotrophin-1: MSRREGSLEDPQTDSSVSLLPHLEAKIRQTHSLAHLLTKYAEQLLQEYVQLQGDPFGLPSFSPPRLPVAGLSAPAPSHAGLPVHERLRLDAAALAALPPLLDAVCRRQAELNPRAPRLLRRLEDAARQARALGAAVEALLAALGAANRGPRAEPPAATASAASATGVFPAKVLGLRVCGLYREWLSRTEGDLGQLLPGGSA | – | – | complete return to baseline cardiac dimensions for wall thickness | – | increase in (both) ventricle wall thickness | significant STAT3 activation | – | rapid increase in the expression of VEGF | slight, yet significant, decrease in NFAT activity | significantly decreased NFAT activity
